Consider seven compounds from patent US10047151B2, “Methods for the treatment of cancer and inflammatory diseases using cereblon as a predictor” (Celgene Corporation, priority 2011, dated 2018).

Test [1] relates to IRF4. The test is described as follows: IRF4 protein expression in ABC-DLBCL cells (Western blot). The format is cell-based. The note with it: OCI-Ly3 cells; 1-3 day treatments. As to the method: (§1) Cells were treated with test compounds or 0.1% DMSO for indicated times. Following incubation, cells were collected, pelleted with centrifugation, and immediately lysed in 0.1 ml lysis buffer containing 10 mM Tris-HCl pH 8.0, 10 mM EDTA, 150 mM NaCl, 1% NP-40, 0.5% SDS, 1 mM DTT, 1 mM Na3VO4, plus Complete protease inhibitor cocktail (Roche Applied Science, Indianapolis, Ind.), then processed with a Qiashredder™ (Qiagen, Valencia, Calif.) for 1 minute and frozen on dry ice. Samples were diluted with 6×SDS sample buffer and then boiled for 5 min. Approximately 30 μl of this mixture was loaded per lane on a Criterion Precast 4-12% Tris-HCl gel (Bio-Rad, Hercules, Calif.), electrophoresed, and transferred to nitrocellulose membranes (Bio-Rad, Hercules, Calif.). The membranes were blocked for 1 hour at room temperature using blocking buffer (LI-COR Biosciences, Lincoln, Nebr.), then incubated overnight at 4° C. with antibodies against either BCL-10, IRF4, CRBN or β-actin. Membranes were washed and incubated with IRDye Secondary Antibodies (1:30,000) for 1 hour at room temperature. A standard protocol was then followed for signal detection, using the Odyssey® Infrared Imaging System and software (LI-COR Biosciences, Lincoln, Nebr.).
To understand the molecular mechanism of lenalidomide on ABC-DLBCL cells, the effects of lenalidomide on IRF4 expression in these cells were investigated. […] Lenalidomide-induced decrease of IRF4 expression occurred as early as 1 day of drug treatment, with similar kinetics to that of the inhibitors (zVRPR-fmk and LY-333,531, respectively) of MALT1 and PKCβ, two key enzymes involved in NF-κB activation upon BCR engagement in B cells.
For orientation: Immunoblotting shows a protein as a band on a membrane.

Test [2] has as its system T cells. Description: Ubiscan ubiquitinated peptide quantification in T cells. In kind it is cell-based. An excerpt: The effects of lenalidomide and pomalidomide on protein ubiquination were investigated using CST Ubiscan technology. Treated samples were sent to Cell Signaling Technology for ubiquinated peptide enrichment and quantification by LC/MS/MS.
Test [3] concerns pRb. The test is described as follows: pRb phosphorylation in H929 cells (Western blot). In kind it is cell-based.
Test [4] relates to IRF4. Description: IRF4 protein level in H929 cells (Western blot). The format is cell-based. An excerpt: In H929 cells, the cell cycle arrest in G1 phase by the drugs coincides with a reduction of tumor suppressor, pRb, phosphorylation and the oncogene and myeloma survival factor IRF4.
The test system of test [5] is H929 cells. Description: Cell cycle progression (cells in S phase) in siRNA-transfected H929 cells. The format is cell-based. The conditions noted are these: 72 h treatment. As to the method:
The effect of CRBN in H929 cells was also evaluated. H929 cells were transfected with mock, negative control siRNA and CRBN-siRNA-7 for 24, 48, 72 and 96 h. Cells were treated 24 h after transfection with DMSO (0.1%), pomalidomide (1 μM), lenalidomide (10 μM) or 3-(5-amino-2-methyl-4-oxo-4H-quinazolin-3-yl)-piperidine-2,6-dione (“Compound B”) for 1, 2, 3 days and the effect on cell cycle and proliferation investigated. Lenalidomide, pomalidomide and Compound B induced a delay of cell cycle progression, measured as the decrease of the number of cells in S phase, in control mock and negative control siRNA-transfected cells after 72 h treatment (FIG. 2C). Knockdown of CRBN markedly abrogated immunomodulatory drugs-induced delay in cell cycle progression in H929 cells (FIG. 2C) from of 50 to 4% for lenalidomide, from 70 to 15% for pomalidomide, and from 65 to 22% for Compound B.

Test [6] relates to poly-ubiquitin chains. Description: Global polyubiquitination by immunofluorescence in H929 cells. The conditions noted are these: 1 μM, 30 minutes. The format is cell-based. As to the method: Specific antibodies for poly-ubiquitin chains were used to study the effect of immunomodulatory drugs on global levels of ubiquitination. H929 cells were treated with lenalidomide (1 μM), pomalidomide (1 μM) or proteasome inhibitor MG132. After 30 minutes cells were process for immunofluorescence. Global levels of K63-linked polyubiquitination were quantified by Cellomics.

The test system of test [7] is U266. Description: Ubiscan ubiquitinated peptide quantification in U266. In kind it is cell-based. The source says:
The effects of lenalidomide and pomalidomide on protein ubiquination were investigated using CST Ubiscan technology. Treated samples were sent to Cell Signaling Technology for ubiquinated peptide enrichment and quantification by LC/MS/MS. […] In the MG132 combo, more ubiquinated peptides are observed (compared with their controls). […] These peptides correspond to 176 unique proteins. Top few groups are: nucleosome, chromatin, protein-DNA complex assembly, Histone H2A. Among the 176 proteins, we found five proteins that belong to “ubiquitin-protein ligase activity” category, they are MDM2, HERC2, UBE2D3 (only by pomalidomide), UBE2N (lenalidomide only), UBE2M (both). Results for hits categorized by conditions are shown in FIGS. 8 & 9 (without MG132) and FIGS. 10 & 11 (with MG132).

For test [8], the system named is p21^WAF-1. The test is described as follows: p21WAF-1 mRNA and protein levels in U266B1 cells. In kind it is cell-based. The conditions noted are these: U266B1, control mock and negative control siRNA-transfected cells; pomalidomide 1 μM, lenalidomide 10 μM. As for the experimental part:
To further investigate the effects of CRBN on the cell cycle arrest induced by drugs we used RT-PCR and Western blot analysis to measure the levels of key cell cycle and apoptotic regulators. U266B1 cells were transfected with mock, negative control siRNA, CRBN-siRNA-7 and CRBN-siRNA-11 for 24, 48, 72 and 96 h (FIG. 3A). Cells were treated 24 h after transfection with DMSO (0.1%), pomalidomide (1 μM) and lenalidomide (10 μM) for 1, 2, 3 days and the effect on mRNA and protein levels of the cyclin-dependent kinase (CDK) inhibitor p21^WAF-1 were evaluated. It has been shown that lenalidomide- and pomalidomide-induced cell cycle arrest is dependent on up-regulation of p21^WAF-1 in […]. […] However, knockdown of CRBN prevents the induction of p21^WAF-1 indicating the successful abrogation of G1 arrest and renewal of S phase progression (FIGS. 3C & 3D).

Test [9] relates to U266B1 cells. The test is described as follows: Cell cycle progression (cells in S phase) in siRNA-transfected U266B1 cells. The format is cell-based. The conditions noted are these: control mock and negative control siRNA-transfected cells; average of 3 days of treatment; pomalidomide 1 μM, lenalidomide 10 μM. As for the experimental part:
Drugs such as lenalidomide and pomalidomide have direct anti-proliferative activity against MM cells by inducing cell cycle arrest in G1 phase, followed by a decrease in viability. To study the role of CRBN in lenalidomide and other drugs anti-proliferative activities, H929 and U266B1 cells, two sensitive myeloma lines, were transfected with CRBN-siRNAs or control siRNAs for 24, 48, 72 and 96 hours. Cells were treated 24 h after transfection with DMSO (0.1%), pomalidomide (1 μM) and lenalidomide (10 μM) for 1, 2, 3 days to evaluated the compound effect on CRBN protein, mRNA expression and the effect on cell cycle and proliferation. […] CRBN down regulation was confirmed by RT-PCR and Western blot using the CRBN70 antibody (FIG. 1).
Knockdown of CRBN markedly abrogated the lenalidomide and pomalidomide-induced delay in cell cycle progression in U266B1 cells. Id.

Test [10] has as its system CRBN. Description: CRBN mRNA and protein expression after drug treatment (RT-PCR, Western blot). The conditions noted are these: H929 and U266B1 cells; pomalidomide 1 μM, lenalidomide 10 μM. The format is cell-based.
Test [11] relates to U266B1 cells. Description: Gene expression profile by microarray in U266B1 cells. The format is cell-based. The conditions noted are these: negative control siRNA-transfected U266B1 cells; pomalidomide 1 μM, lenalidomide 10 μM; ±1.7 fold, P<0.05. As to the method: Gene expression profile using microarray technology identified 759 or 609 genes differentially modulated in negative control siRNA-transfected U266B1 cells treated with pomalidomide (1 μM) or lenalidomide (10 μM) compared to DMSO treated control (±1.7 fold; P<0.05 ANOVA p-value) (FIGS. 5A & 5B).

For test [12], the target named is CRBN (Homo sapiens, UniProt Q96SW2). The test is described as follows: Binding of compounds to CRBN.
In test [13] the test system is CARD11-BCL-10-MALT1 (CBM) complex. The test is described as follows: MALT1-induced BCL-10 cleavage (CBM complex activity) in ABC-DLBCL cells. The format is cell-based. The conditions noted are these: OCI-Ly3 cells. As to the method: as §1
This mutation has been reported to cause constitutive formation and activation of CARD11-BCL-10-MALT1 (CBM) complex of BCR signaling pathway, leading to NF-κB overactivation in lymphoma cells. See Lenz, G., et al., Science 2008, 319: 1676-9; Thome, M. et al., Cold Spring Harb Perspect Biol. 2010; 2: a003004. To investigate the potential involvement of CBM complex in lenalidomide-induced IRF4 inhibition in these cells, the effect of lenalidomide on the complex activity was examined by measuring MALT1 paracaspase enzymatic activity. MALT1 is activated upon association with BCL-10 and CARD11 to form active CBM complex and then cleaves its binding partners, such as BCL-10.

Test [14] concerns TNF. Description: TNF inhibition by Compound A. The format is cell-based.
The test system of test [15] is Jurkat IL-2. Description: Jurkat IL-2 induction by Compound A. In kind it is cell-based.
Setting [16] is: H929 cells with knockdown of CRBN.
[17] abbreviates: control mock and negative control siRNA-transfected H929 cells.

CRBN (Homo sapiens, UniProt Q96SW2), sequence (Q96SW2 whole entry): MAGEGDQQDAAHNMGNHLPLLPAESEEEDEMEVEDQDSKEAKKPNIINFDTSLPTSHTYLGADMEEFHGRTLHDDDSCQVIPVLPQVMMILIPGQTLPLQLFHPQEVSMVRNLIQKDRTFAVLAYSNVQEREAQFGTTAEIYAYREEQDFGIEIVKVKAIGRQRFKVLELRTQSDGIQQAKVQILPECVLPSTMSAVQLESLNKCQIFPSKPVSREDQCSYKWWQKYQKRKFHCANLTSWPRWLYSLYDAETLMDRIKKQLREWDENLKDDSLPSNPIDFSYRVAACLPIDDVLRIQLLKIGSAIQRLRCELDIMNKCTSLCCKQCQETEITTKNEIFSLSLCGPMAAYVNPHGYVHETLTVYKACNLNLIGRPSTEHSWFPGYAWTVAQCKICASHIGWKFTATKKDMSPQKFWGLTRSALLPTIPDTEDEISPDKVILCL

As for zVRPR-fmk [MALT1 inhibitor], the IRF4 levels result in [1] is “complete inhibition”.

In the case of `Cc1nc2cccc(N)c2c(=O)n1C1CCC(=O)NC1=O` (centres unmarked) [Compound B, 3-(5-amino-2-methyl-4-oxo-4H-quinazolin-3-yl)-piperidine-2,6-dione], in test [2], the “Ub-proteins increased in abundance” value is “IKZF3, RPL19, PCM1 and NEDD8”; the “proteins decreased in abundance” value is “GNB2L1 and HNRNPR”; the “ubiquinated peptides of greater abundance vs. DMSO control” value was “SECTM1 and ZC3H15”. Further, the “phosphorylation of pRB” value in test [3] was “decreased”. Besides, in [4], the “total level of protein IRF4” value is on record as “decreased”. Further, in [5] (setting [16]), the “delay in cell cycle progression (decrease of the number of cells in S phase)” value was 22%. For the same compound, the “delay in cell cycle progression (decrease of the number of cells in S phase)” value in test [5] (setting [17]) turned out to be 65%.

In the case of `Nc1cccc2c1C(=O)N(C1CCC(=O)NC1=O)C2=O` (centres unmarked) [pomalidomide, 4-amino-2-(2,6-dioxopiperidin-3-yl)-1H-isoindole-1,3-dione], in [6], the K-63-linked ubiquitination entry is listed as “but not K-63-linked ubiquitination” and the “total K48-linked polyubiquitination” value is recorded as “decrease”. Also, in test [7], the “Ub-proteins increased in abundance” value is “IKZF3, RPL19, PCM1 and NEDD8”; the “proteins decreased in abundance” value is “GNB2L1 and HNRNPR”. The “phosphorylation of pRB” value in test [3] is recorded as “decreased”. For the same compound, in [8], the p21 level entry is on record as “up-regulated”. In addition, the “delay of cell cycle progression, measured as the decrease of the number of cells in S phase” value in test [9] came out at 50%. In [10], the “mRNA and protein expression of CRBN” value was “affected neither mRNA nor protein expression of CRBN significantly”. Besides, the “genes differentially modulated compared to DMSO treated control” value in [11] was 759 genes. Also, in test [4], the “total level of protein IRF4” value was “decreased”. Besides, the “delay in cell cycle progression (decrease of the number of cells in S phase)” value in [5] (setting [16]) is reported as 15%. Moreover, the “delay in cell cycle progression (decrease of the number of cells in S phase)” value in test [5] (setting [17]) is given as 70%.

For the compound `C[C@]1(N2C(=O)c3cccc(N)c3C2=O)CCC(=O)NC1=O` [S-methyl-pomalidomide], in test [12], the “affinity for CRBN (enantiomers compared)” value is “greater affinity for CRBN than R-methyl-pomalidomide”.

Turning to `O=C1NC(=O)c2ccccc21` [pthalimide], the “binding to CRBN” value in test [12] is recorded as “did not”.

Consider `CN(C)C[C@@H]1CCn2cc(c3ccccc32)C2=C(C(=O)NC2=O)c2cn(c3ccccc23)CCO1` [PKCβ inhibitor, LY-333,531], for which the IRF4 levels entry in test [1] is recorded as “neither lenalidomide nor the PKCβ inhibitor had any appreciable effect”. The BCL-10 cleavage result in [13] is given as “neither the PKCβ inhibitor nor lenalidomide had any effect”.

On to `Cl.NCCC(=O)NCc1cccc2c1C(=O)N(C1CCC(=O)NC1=O)C2=O` (centres unmarked) [Compound A], for which the IC50 (commonly the midpoint of a concentration-inhibition curve) in [14] amounted to 622 nM. Besides, in test [15], the “Jurkat IL-2 EC200” value was 3.47 µM.
